Several values for one entry are separate records, joined by “and”; a condition that tells them apart may be missing. Identical values can stand only once. Like-named read-outs stand apart in the source and are kept apart here.

26 molecules from article PMC9268553 (Molecules, 2022) can be followed below.

One experiment has as its target T1, human fXa (Homo sapiens, UniProt P00742).
T1 construct: purchased Chromogenix AB-Instrumentation Laboratories (Milan, Italy)
In words: biochemical.

A further experiment has as its target T2, bovine thrombin (Bos taurus, UniProt P00735).
T2 construct: purchased Sigma-Aldrich (Milan, Italy)
In words: thrombin inhibition, chromogenic substrate S-2238. The experiment is classed as biochemical.

The next experiment concerns the target α-chymotrypsin (Bos taurus, UniProt P00766). In words: α-chymotrypsin inhibition. As to conditions: read-out: Ki αCHT. The experiment is classed as biochemical.
Another experiment deals with T3, AChE (from electric eel) (Electrophorus electricus, UniProt O42275).
T3 construct: AChE (from electric eel); from tissue
The experiment is described as follows: biochemical. As to conditions: for inhibition at 50 µM: read-out: inhibition percentage AchE.

In another experiment the target is T4, BChE (from horse serum) (Equus caballus, UniProt P81908).
T4 construct: BChE (from horse serum); from tissue; host or cells: horse serum
In words: biochemical. As to conditions: for inhibition at 50 µM: read-out: inhibition percentage BchE.

[1] abbreviates: Cheng–Prusoff from IC50, pH 8, mean of three measurements, read-out: Ki fXa.
[2] abbreviates: electric eel AChE, Cheng–Prusoff from IC50, read-out: Ki AchE.
[3] abbreviates: horse serum BChE, Cheng–Prusoff from IC50.

T3 sequence (O42275 24-633): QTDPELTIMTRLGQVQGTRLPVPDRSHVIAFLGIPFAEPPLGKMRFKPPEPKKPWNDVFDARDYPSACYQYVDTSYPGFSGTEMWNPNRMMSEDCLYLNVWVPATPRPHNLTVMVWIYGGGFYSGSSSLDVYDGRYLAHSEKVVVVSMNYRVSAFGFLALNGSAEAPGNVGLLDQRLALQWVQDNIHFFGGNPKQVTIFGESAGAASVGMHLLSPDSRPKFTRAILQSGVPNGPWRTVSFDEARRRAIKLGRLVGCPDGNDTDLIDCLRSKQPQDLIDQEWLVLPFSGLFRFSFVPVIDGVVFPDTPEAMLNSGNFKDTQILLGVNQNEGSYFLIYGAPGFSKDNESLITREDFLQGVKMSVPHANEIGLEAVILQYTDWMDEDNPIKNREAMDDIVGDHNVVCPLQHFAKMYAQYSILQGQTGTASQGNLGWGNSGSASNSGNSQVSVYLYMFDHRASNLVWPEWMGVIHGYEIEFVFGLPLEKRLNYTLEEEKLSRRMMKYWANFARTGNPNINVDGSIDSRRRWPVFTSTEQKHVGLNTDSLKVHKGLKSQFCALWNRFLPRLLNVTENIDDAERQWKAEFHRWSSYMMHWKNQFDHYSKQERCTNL
T1 sequence (P00742 235-488 limits assumed): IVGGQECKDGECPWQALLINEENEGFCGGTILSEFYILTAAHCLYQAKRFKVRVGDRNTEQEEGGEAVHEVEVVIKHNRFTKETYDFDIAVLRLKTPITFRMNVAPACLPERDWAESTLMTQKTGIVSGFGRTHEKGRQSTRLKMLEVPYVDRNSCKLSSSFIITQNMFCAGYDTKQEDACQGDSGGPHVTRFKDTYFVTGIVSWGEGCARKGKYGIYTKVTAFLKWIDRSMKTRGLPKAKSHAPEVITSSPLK
T1 sequence (P00742 41-179 partner limits assumed): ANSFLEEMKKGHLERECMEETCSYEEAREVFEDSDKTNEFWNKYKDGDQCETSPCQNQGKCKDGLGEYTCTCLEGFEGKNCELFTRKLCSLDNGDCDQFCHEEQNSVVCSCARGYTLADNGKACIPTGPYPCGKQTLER
T4 sequence (P81908 whole entry): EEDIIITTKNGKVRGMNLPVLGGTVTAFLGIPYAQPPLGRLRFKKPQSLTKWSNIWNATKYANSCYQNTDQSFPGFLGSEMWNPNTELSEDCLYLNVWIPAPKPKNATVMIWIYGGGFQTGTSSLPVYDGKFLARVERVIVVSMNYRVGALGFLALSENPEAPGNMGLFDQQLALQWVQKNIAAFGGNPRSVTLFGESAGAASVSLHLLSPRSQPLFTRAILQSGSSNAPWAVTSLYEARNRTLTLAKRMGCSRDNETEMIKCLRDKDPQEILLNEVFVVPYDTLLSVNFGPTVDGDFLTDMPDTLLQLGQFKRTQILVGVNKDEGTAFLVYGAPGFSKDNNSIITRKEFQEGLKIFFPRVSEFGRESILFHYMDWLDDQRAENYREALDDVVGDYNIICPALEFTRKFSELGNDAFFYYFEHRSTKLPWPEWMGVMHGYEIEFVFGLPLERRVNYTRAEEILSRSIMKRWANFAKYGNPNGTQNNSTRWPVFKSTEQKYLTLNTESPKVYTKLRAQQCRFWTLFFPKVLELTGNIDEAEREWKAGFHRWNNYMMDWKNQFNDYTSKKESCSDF

Take `N=C(N)c1ccc(NC(=O)CNC(=O)Cc2ccccc2)cc1` [Compound 4a]: the inhibition constant (Ki) was over 50 µM at human fXa (setting [1]) and 39.4 µM at bovine thrombin.

Take `N=C(N)c1cccc(NC(=O)CNC(=O)Cc2ccccc2)c1` [Compound 4b]: the Ki on human fXa (setting [1]) was found to be 25.6 µM; at bovine thrombin, 24.1 µM.

Regarding `N=C(N)c1cccc(NC(=O)CNC(=O)Cc2ccc(-c3ccc(F)cc3F)cc2)c1` [Compound 4c], the Ki on human fXa (setting [1]) was found to be 1.01 µM; at bovine thrombin, 10.7 µM; at α-chymotrypsin, 35 µM. Also, the “decrease of anti-fXa activity from malonamide 19h to glycinamide 4c” value at human fXa (ratio of Ki, relative to 19h) is recorded as “about 20 times”.

For `N=C(N)c1ccc(NC(=O)CC(=O)NCc2ccccc2)cc1` [Compound 18a], the Ki is 23.2 µM on human fXa (setting [1]) and over 50 µM on bovine thrombin.

Regarding `N=C(N)c1cccc(NC(=O)CC(=O)NCc2ccccc2)c1` [Compound 18b], the Ki is 12.3 µM on human fXa (setting [1]) and over 50 µM at bovine thrombin.

`N=C(N)c1ccc(NC(=O)CC(=O)NCCc2ccccc2)cc1` [Compound 18c]: the Ki at human fXa (setting [1]) and on bovine thrombin was over 50 µM in each case.

Turning to `N=C(N)c1ccc(NC(=O)CC(=O)NCCCc2ccccc2)cc1` [Compound 18d], the Ki on human fXa (setting [1]) stood at 39.8 µM; at bovine thrombin, 25.5 µM.

Regarding `N=C(N)c1ccc(NC(=O)CC(=O)NCCCCc2ccccc2)cc1` [Compound 18e], the figures for the Ki at human fXa (setting [1]) and at bovine thrombin were 18.6 µM and 5.5 µM, respectively.

With `Cc1ccc(CNC(=O)CC(=O)Nc2ccc(C(=N)N)cc2)cc1` [Compound 19a], the figures for the Ki on human fXa (setting [1]) and on bovine thrombin were 4.4 µM and 36.5 µM, respectively.

In the case of `Cc1ccc(CNC(=O)CC(=O)Nc2cccc(C(=N)N)c2)cc1` [Compound 19b], the Ki on human fXa (setting [1]) turned out to be 4.2 µM; at bovine thrombin, 36.6 µM.

For the molecule `N=C(N)c1ccc(NC(=O)CC(=O)NCc2ccc(-c3ccccc3)cc2)cc1` [Compound 19c], the inhibition constant (Ki) on human fXa (setting [1]) and on bovine thrombin was over 50 µM in each case.

Consider `N=C(N)c1cccc(NC(=O)CC(=O)NCc2ccc(-c3ccccc3)cc2)c1` [Compound 19d], for which the Ki at human fXa (setting [1]) was 1.56 µM; at bovine thrombin it was over 50 µM; at α-chymotrypsin, 4.3 µM; at AChE (from electric eel) (setting [2]), 9.33 µM. Also, on BChE (from horse serum), the inhibition at 50 µM turned out to be 28%.

Consider `N=C(N)c1cccc(NC(=O)CC(=O)NCc2ccc(-c3ccccc3F)cc2)c1` [Compound 19e], for which the Ki is 0.93 µM and 0.932 µM at human fXa (setting [1]); 14.6 µM at bovine thrombin; over 50 µM at α-chymotrypsin; 7.7 µM on BChE (from horse serum) (setting [3]). Further, the inhibition at 50 µM on AChE (from electric eel) amounted to 35%.

For `N=C(N)c1cccc(NC(=O)CC(=O)NCc2ccc(-c3cccc(F)c3)cc2)c1` [Compound 19f], the Ki at human fXa (setting [1]) is 0.35 µM and 0.348 µM; on bovine thrombin it was 18.8 µM; on α-chymotrypsin, 26.5 µM; on AChE (from electric eel) (read-out: Ki AchE), 8.11 µM; at BChE (from horse serum), 8.09 µM.

Turning to `N=C(N)c1cccc(NC(=O)CC(=O)NCc2ccc(-c3ccc(F)cc3)cc2)c1` [Compound 19g], the Ki on human fXa (setting [1]) was 0.91 µM and 0.907 µM; on bovine thrombin it was 6.19 µM; at α-chymotrypsin, over 50 µM; on AChE (from electric eel) (setting [2]), 4.48 µM. The inhibition at 50 µM at BChE (from horse serum) is 37%.

Take `N=C(N)c1cccc(NC(=O)CC(=O)NCc2ccc(-c3ccc(F)cc3F)cc2)c1` [Compound 19h]: the Ki at human fXa (setting [1]) was 0.057 µM; on human fXa (read-out: Ki against fXa), 0.057 µM; on bovine thrombin, 16.1 µM; at α-chymotrypsin it was over 50 µM; at AChE (from electric eel) (setting [2]), 2.44 µM; at BChE (from horse serum) (setting [3]) it was 1.52 µM.

On to `N=C(N)c1cccc(NC(=O)CC(=O)NCc2ccc(-c3cc(F)cc(F)c3)cc2)c1` [Compound 19i], for which the Ki on human fXa (setting [1]) amounted to 0.264 µM; at bovine thrombin it was 26.7 µM; on α-chymotrypsin, 30.2 µM; on BChE (from horse serum) (setting [3]), 8.02 µM. The inhibition at 50 µM at AChE (from electric eel) was 5%.

In the case of `CC(C)(C(=O)NCc1ccc(-c2ccc(F)cc2F)cc1)C(=O)Nc1cccc(C(=N)N)c1` [Compound 19l], the Ki on human fXa (setting [1]) is 0.214 µM; at bovine thrombin, over 50 µM; on α-chymotrypsin, over 50 µM; on AChE (from electric eel), 3.74 µM; at BChE (from horse serum) (setting [3]) it was 1.55 µM.

Regarding `N=C(N)c1cccc(NC(=O)CC(=O)Nc2cccc(OCCc3ccc(F)cc3)c2)c1` [Compound 20a], the Ki on human fXa (setting [1]) was 0.413 µM; at bovine thrombin, 12 µM; at α-chymotrypsin, over 50 µM; at AChE (from electric eel) (setting [2]), 10 µM; at BChE (from horse serum) (setting [3]) it was 1.02 µM.

As for `COc1ccc(CCOc2cccc(NC(=O)CC(=O)Nc3cccc(C(=N)N)c3)c2)cc1` [Compound 20b], the Ki on human fXa (setting [1]) was 0.205 µM; at bovine thrombin, 6.66 µM; on α-chymotrypsin, over 50 µM; on AChE (from electric eel) (setting [2]) it was 1.56 µM; on BChE (from horse serum) (setting [3]), 5.84 µM.

Consider `N=C(N)c1cccc(NC(=O)CC(=O)N2CCN(c3ccc(F)cc3)CC2)c1` [Compound 21a], for which the inhibitory constant (Ki) at human fXa (setting [1]) was 0.423 µM; on bovine thrombin it was 31.4 µM; at α-chymotrypsin, over 50 µM; on AChE (from electric eel) (setting [2]), 4.68 µM; on BChE (from horse serum) (setting [3]) it was 10 µM.

For the molecule `N=C(N)c1cccc(NC(=O)CC(=O)N2CCC(Oc3ccc(F)cc3)CC2)c1` [Compound 22a], the Ki at human fXa (setting [1]) is 0.35 µM; on bovine thrombin, over 50 µM; on α-chymotrypsin, over 50 µM; at AChE (from electric eel) (setting [2]), 1.88 µM. On BChE (from horse serum), the inhibition at 50 µM was 22%.

`N=C(N)c1cccc(NC(=O)CC(=O)N2CCC(Oc3ccc(F)cc3F)CC2)c1` [Compound 22b]: the Ki at human fXa (setting [1]) was 0.089 µM; on bovine thrombin it was over 50 µM; on α-chymotrypsin, over 50 µM; on AChE (from electric eel) (setting [2]), 2.31 µM. Moreover, the inhibition at 50 µM at BChE (from horse serum) was determined as 25%.

With `N=C(N)c1cccc(NC(=O)CC(=O)N2CCC(Oc3ccc(F)c(F)c3)CC2)c1` [Compound 22c], the Ki on human fXa (setting [1]) is 0.12 µM; on bovine thrombin, 27 µM; on α-chymotrypsin, over 50 µM; on AChE (from electric eel) (setting [2]) it was 2.68 µM; at BChE (from horse serum) (setting [3]) it was 10.9 µM.

On to `N=C(N)c1cccc(NC(=O)CC(=O)Nc2ccc(OC3CCNCC3)cc2)c1` [Compound 23a], for which the Ki at human fXa (setting [1]) is 0.59 µM; on bovine thrombin, 42.4 µM; at α-chymotrypsin, over 50 µM; at BChE (from horse serum) (setting [3]), 10 µM. The inhibition at 50 µM on AChE (from electric eel) stood at 1%.

Regarding `CC(C)N1CCC(Oc2ccc(NC(=O)CC(=O)Nc3cccc(C(=N)N)c3)cc2)CC1` [Compound 23b], the inhibition constant Ki was 2.3 µM at human fXa (setting [1]); over 50 µM on bovine thrombin; over 50 µM at α-chymotrypsin; 1.3 µM on AChE (from electric eel) (setting [2]); 0.65 µM at BChE (from horse serum) (setting [3]).
